25 compounds from patent US10011586B2, “Heterocyclic compound, method for preparing the same, and pharmaceutical composition comprising the same” (Daewoong Pharmaceutical Co., Ltd., priority 2015, dated 2018) can be followed below.

Read-outs that look alike come from different tables or passages of the source. A value given as a limit tells only on which side of the number the result lay.

Test [1] deals with T1, PRS enzyme (Homo sapiens, UniProt P07814).
T1 construct: the portion corresponding to PRS in cDNA of EPRS was subcloned; made in house
T1 sequence (P07814 1007-1512 limits assumed): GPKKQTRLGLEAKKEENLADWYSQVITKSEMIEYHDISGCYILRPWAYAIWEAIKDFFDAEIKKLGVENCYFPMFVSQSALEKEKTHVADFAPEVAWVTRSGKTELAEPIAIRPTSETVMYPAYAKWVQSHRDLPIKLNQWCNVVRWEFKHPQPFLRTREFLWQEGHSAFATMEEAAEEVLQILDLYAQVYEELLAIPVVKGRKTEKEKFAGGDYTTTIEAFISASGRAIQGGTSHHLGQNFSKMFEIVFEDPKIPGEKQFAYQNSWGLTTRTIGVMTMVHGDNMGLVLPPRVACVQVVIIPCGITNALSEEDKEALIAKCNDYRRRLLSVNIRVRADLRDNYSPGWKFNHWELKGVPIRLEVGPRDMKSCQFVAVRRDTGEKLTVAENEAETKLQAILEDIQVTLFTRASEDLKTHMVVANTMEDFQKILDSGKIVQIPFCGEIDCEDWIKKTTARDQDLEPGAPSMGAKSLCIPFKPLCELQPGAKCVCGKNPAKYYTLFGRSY
The test is described as follows: PRS enzyme activity inhibition experiment. The class given is biochemical. Here is the method: Specifically, the portion corresponding to PRS in cDNA of EPRS was subcloned, and the obtained high-purity PRS protein was purified and used in the experiment. The compounds (1 μM) prepared in Examples were added into the reaction buffer (20 mM KPO4 (pH 7.4), 6 mM MgAc, 5 mM ATP, […] tRNA, 0.5 mM DTT, […][^3H]proline (1 mCi/mL)) and allowed to react at 37° C. for 5 to 10 minutes. The reaction was terminated with 3M paper that was in advance dried by addition of 5% TCA. The radioactivity was measured using a liquid scintillation counter.
% Inhibition and IC50 values of the respective compounds were calculated and analyzed using Microsoft Excel or Sigma Plot 8.0. In Table 1, the results are divided into A, B and C according to the range of IC50.

Test [2] has as its system NCI-H460 cells. As to the kind of experiment: Cancer cell growth inhibition experiment (MTT assay). The class given is cell-based. Conditions: Homo sapiens, lung cancer cell line, compounds 48 hours, cell viability by MTT assay. Here is the method:
NCl-H460 cells, lung cancer cell lines, were cultured in 5% CO2, 37° C. incubator using a flask for 75 cm^2 tissue culture. 96-well plates were used for the evaluation. These were prepared by differently applying at concentrations in the range of 6,000 to 12,000 cells/well according to the growth rate of the cell lines. The medium containing 5% FBS were dispensed in 200 μL/well and used. The medium were cultured for 24 hours. After confirming the cell status and dispensing form of a 96-well plate under a microscope, they were used for subsequent experiments. The compounds were evaluated at concentrations of 100, 30, 10, 3, 1, 0.3, 0.03, 0.01 μM. After removing the existing medium, the compounds with various concentrations were treated in an amount of 200 μL/well. The compounds-treated plates were further cultured for 48 hours, and the cell viabilities were measured by MTT assay to calculate IC50 values.
% Inhibition and IC50 values of the respective compounds were calculated and analyzed using Sigma Plot 8.0. In Table 2, the results are divided into A, B and C according to the range of IC50. The case where the derived IC50 is 3 μM or less is represented by “A”, the case where the IC50 is 3 to 10 μM is represented by “B”, and the case where the IC50 is 10 μM or higher is represented by “C”.
For orientation: Formazan colour is commonly taken as a measure of viable cells.

[3] abbreviates: purified PRS protein subcloned from EPRS cDNA, [3H]proline, 37° C., 5 to 10 minutes, liquid scintillation counter, read-out: PRS IC50.

As to `O=C(C[C@H]1NCCC[C@@H]1O)Cn1cnc2c(-c3ccccc3)cccc21` [Example 1, 1-((2R,3S)-3-hydroxypiperidin-2-yl)-3-(4-phenyl-1H-benzo[d]imidazol-1-yl)propan-2-one], the values for the IC50 in test [1] (setting [3]) and in test [2] were 100 to 500 nM and ≥ 10000 nM, respectively.

`O=C(C[C@H]1NCCC[C@@H]1O)Cn1cnc2c(-c3cccc(F)c3)nccc21` [Example 2, 1-(4-(3-fluorophenyl)-1H-imidazo[4,5-c]pyridin-1-yl)-3-((2R,3S)-3-hydroxypiperidin-2-yl)propan-2-one]: the IC50 in test [1] (setting [3]) was > 500 nM. Still for that read-out and setting: in the case of `O=C(C[C@H]1NCCC[C@@H]1O)Cn1cnc2c(-c3cccc(Cl)c3)nccc21` [Example 3, 1-(4-(3-chlorophenyl)-1H-imidazo[4,5-c]pyridin-1-yl)-3-((2R,3S)-3-hydroxypiperidin-2-yl)propan-2-one] it was > 500 nM. Same read-out and setting: in the case of `O=C(C[C@H]1NCCC[C@@H]1O)Cn1cnc2c(-c3cccc(C(F)(F)F)c3)nccc21` [Example 4, 1-((2R,3S)-3-hydroxypiperidin-2-yl)-3-(4-(3-(trifluoromethyl)phenyl)-1H-imidazo[4,5-c]pyridin-1-yl)propan-2-one] it was > 500 nM; in that of `O=C(C[C@H]1NCCC[C@@H]1O)Cn1cnc2c(-c3cc(F)cc(Cl)c3)nccc21` [Example 5, 1-(4-(3-chloro-5-fluorophenyl)-1H-imidazo[4,5-c]pyridin-1-yl)-3-((2R,3S)-3-hydroxypiperidin-2-yl)propan-2-one], > 500 nM. The same measure, in the same setting: with `O=C(C[C@H]1NCCC[C@@H]1O)Cn1cnc2c(-c3cc(Cl)cc(Cl)c3)nccc21` [Example 6, 1-(4-(3,5-dichlorophenyl)-1H-imidazo[4,5-c]pyridin-1-yl)-3-((2R,3S)-3-hydroxypiperidin-2-yl)propan-2-one] the figure was > 500 nM.

Turning to `O=C(C[C@H]1NCCC[C@@H]1O)Cn1cnc2c(N3CCCC3)nccc21` [Example 7, 1-((2R,3S)-3-hydroxypiperidin-2-yl)-3-(4-(pyrrolidin-1-yl)-1H-imidazo[4,5-c]pyridin-1-yl)propan-2-one], the IC50 in test [2] was ≥ 10000 nM. Take `O=C(C[C@H]1NCCC[C@@H]1O)Cn1cnc2cc(-c3ccccc3)ccc21` [Example 8, 1-((2R,3S)-3-hydroxypiperidin-2-yl)-3-(5-phenyl-1H-benzo[d]imidazol-1-yl)propan-2-one]: the values for the IC50 in test [1] (setting [3]) and in test [2] were > 500 nM and ≥ 10000 nM, respectively. For `O=C(C[C@H]1NCCC[C@@H]1O)Cn1cnc2nc(-c3ccccc3F)ccc21` [Example 9, 1-(5-(2-fluorophenyl)-1H-imidazo[4,5-b]pyridin-1-yl)-3-((2R,3S)-3-hydroxypiperidin-2-yl)propan-2-one], the half-maximal inhibitory concentration (IC50) in test [1] (setting [3]) was > 500 nM. With `O=C(C[C@H]1NCCC[C@@H]1O)Cn1cnc2nc(-c3cccc(F)c3)ccc21` [Example 10, 1-(5-(3-fluorophenyl)-1H-imidazo[4,5-b]pyridin-1-yl)-3-((2R,3S)-3-hydroxypiperidin-2-yl)propan-2-one], the IC50 in test [1] (setting [3]) is > 500 nM.

As for `O=C(C[C@H]1NCCC[C@@H]1O)Cn1cnc2nc(-c3ccc(F)cc3)ccc21` [Example 11, 1-(5-(4-fluorophenyl)-1H-imidazo[4,5-b]pyridin-1-yl)-3-((2R,3S)-3-hydroxypiperidin-2-yl)propan-2-one], in test [1] (setting [3]), the IC50 was > 500 nM. The same measure, in the same setting: with `O=C(C[C@H]1NCCC[C@@H]1O)Cn1cnc2nc(-c3cccc(Cl)c3)ccc21` [Example 12, 1-(5-(3-chlorophenyl)-1H-imidazo[4,5-b]pyridin-1-yl)-3-((2R,3S)-3-hydroxypiperidin-2-yl)propan-2-one] the figure was > 500 nM. The same measure, in the same setting: with `O=C(C[C@H]1NCCC[C@@H]1O)Cn1cnc2nc(-c3cccc(C(F)(F)F)c3)ccc21` [Example 13, 1-((2R,3S)-3-hydroxypiperidin-2-yl)-3-(5-(3-(trifluoromethyl)phenyl)-1H-imidazo[4,5-b]pyridin-1-yl)propan-2-one] the figure was > 500 nM.

`O=C(C[C@H]1NCCC[C@@H]1O)Cn1cnc2cc(-c3cccc(Cl)c3)cnc21` [Example 14, 1-(6-(3-chlorophenyl)-3H-imidazo[4,5-b]pyridin-3-yl)-3-((2R,3S)-3-hydroxypiperidin-2-yl)propan-2-one]: the IC50 is 100 to 500 nM in test [1] (setting [3]) and ≥ 10000 nM in test [2].

For the compound `O=C(C[C@H]1NCCC[C@@H]1O)Cn1cnc2cc(-c3cccc(C(F)(F)F)c3)cnc21` [Example 15, 1-((2R,3S)-3-hydroxypiperidin-2-yl)-3-(6-(3-(trifluoromethyl)phenyl)-3H-imidazo[4,5-b]pyridin-3-yl)propan-2-one], in test [1] (setting [3]), the IC50 was > 500 nM. Consider `Cc1c(-c2cccc(F)c2)ccc2c1ncn2CC(=O)C[C@H]1NCCC[C@@H]1O` [Example 16, 1-(5-(3-fluorophenyl)-4-methyl-1H-benzo[d]imidazol-1-yl)-3-((2R,3S)-3-hydroxypiperidin-2-yl)propan-2-one], for which the IC50 in test [1] (setting [3]) is 100 to 500 nM; in test [2], ≥ 10000 nM.

As for `Cc1c(-c2cccc(Cl)c2)ccc2c1ncn2CC(=O)C[C@H]1NCCC[C@@H]1O` [Example 17, 1-(5-(3-chlorophenyl)-4-methyl-1H-benzo[d]imidazol-1-yl)-3-((2R,3S)-3-hydroxypiperidin-2-yl)propan-2-one], the IC50 in test [1] (setting [3]) is 100 to 500 nM; in test [2], ≥ 10000 nM.

Regarding `Cc1c(-c2ccccc2Cl)ccc2c1ncn2CC(=O)C[C@H]1NCCC[C@@H]1O` [Example 18, 1-(5-(2-chlorophenyl)-4-methyl-1H-benzo[d]imidazol-1-yl)-3-((2R,3S)-3-hydroxypiperidin-2-yl)propan-2-one], the IC50 in test [1] (setting [3]) was > 500 nM; in test [2], ≥ 10000 nM.

For `Cc1c(-c2ccc(Cl)cc2)ccc2c1ncn2CC(=O)C[C@H]1NCCC[C@@H]1O` [Example 19, 1-(5-(4-chlorophenyl)-4-methyl-1H-benzo[d]imidazol-1-yl)-3-((2R,3S)-3-hydroxypiperidin-2-yl)propan-2-one], the values for the IC50 in test [1] (setting [3]) and in test [2] were 100 to 500 nM and ≥ 10000 nM, respectively.

`Cc1c(-c2cccc(C#N)c2)ccc2c1ncn2CC(=O)C[C@H]1NCCC[C@@H]1O` [Example 20, 3-(1-(3-((2R,3S)-3-hydroxypiperidin-2-yl)-2-oxopropyl)-4-methyl-1H-benzo[d]imidazol-5-yl)benzonitrile]: the figures for the IC50 in test [1] (setting [3]) and in test [2] were > 500 nM and ≥ 10000 nM, respectively. The matching figures for `Cc1c(-c2cccc(C(F)(F)F)c2)ccc2c1ncn2CC(=O)C[C@H]1NCCC[C@@H]1O` [Example 21, 1-((2R,3S)-3-hydroxypiperidin-2-yl)-3-(4-methyl-5-(3-(trifluoromethyl)phenyl)-1H-benzo[d]imidazol-1-yl)propan-2-one]: 100 to 500 nM and ≥ 10000 nM. Regarding `O=C(C[C@H]1NCCC[C@@H]1O)Cn1cnc2ncc(-c3cccc(C(F)(F)F)c3)cc21` [Example 42, 1-((2R,3S)-3-hydroxypiperidin-2-yl)-3-(6-(3-(trifluoromethyl)phenyl)-1H-imidazo[4,5-b]pyridin-1-yl)propan-2-one], in test [1] (setting [3]), the IC50 fell in the range of 100 to 500 nM.

With `O=C(C[C@H]1NCCC[C@@H]1O)Cn1cnc2cccc(-c3ccccc3C(F)(F)F)c21` [Example 52, 1-((2R,3S)-3-hydroxypiperidin-2-yl)-3-(7-(2-(trifluoromethyl)phenyl)-1H-benzo[d]imidazol-1-yl)propan-2-one], in test [1] (setting [3]), the IC50 is > 500 nM.

As to `O=C(C[C@H]1NCCC[C@@H]1O)Cn1cnc2cccc(-c3cccc(C(F)(F)F)c3)c21` [Example 53, 1-((2R,3S)-3-hydroxypiperidin-2-yl)-3-(7-(3-(trifluoromethyl)phenyl)-1H-benzo[d]imidazol-1-yl)propan-2-one], in test [1] (setting [3]), the IC50 is > 500 nM. In the case of `O=C(C[C@H]1NCCC[C@@H]1O)Cn1c(CO)nc2cc(-c3ccccc3)ccc21` [Example 55, 1-(2-(hydroxymethyl)-5-phenyl-1H-benzo[d]imidazol-1-yl)-3-((2R,3S)-3-hydroxypiperidin-2-yl)propan-2-one], in test [1], the IC50 is > 500 nM.

By IC50 is commonly meant the concentration that gives 50% inhibition.
